Experimental data published in patent US12410209B2, “Modified glucocorticoids” (Board of Regents, The University of Texas System, priority 2021, dated 2025).

Assays:
Assay type in all cases: cell-based, human
HaCaT cells = assay: MTT assay for cell viability; details: for sensitivity of cells to glucocorticoid treatment (cell proliferation): normal HaCaT cells compared to cancerous PM1 and Met4 cells
PM1 cells = assay: MTT assay for cell viability; details: cancerous PM-1 cells, range of concentrations, FIG. 2
Met4 cells = assay: MTT assay for cell viability; details: cancerous Met4 cells, range of concentrations, FIG. 2
IL-1β mRNA = assay: qPCR analysis of LPS-induced IL-1β mRNA; details: HaCat cells, LPS-induced inflammation, FIG. 5
Text: qPCR analysis is shown FIG. 5.

Compound: C[C@]12CCC(=O)C=C1CC[C@@H]1[C@@H]2[C@@H](F)C[C@@]2(C)[C@H]1CC[C@]2(O)C(=O)CO [F-MOD, 11-deoxyfluorocortisol]
- sensitivity of cells to glucocorticoid treatment (cell proliferation) (HaCaT cells): more sensitive
- potency against cell proliferation compared with cortisol (HaCaT cells; normal HaCaT cells, range of concentrations, FIG. 2): at least as powerful as the original cortisol
- potency against cell proliferation compared with cortisol (PM1 cells): at least as powerful as the original cortisol if not stronger
- potency against cell proliferation compared with cortisol (Met4 cells): at least as powerful as the original cortisol
- LPS-induced increase of inflammatory cytokine IL-1β (IL-1β mRNA): significantly suppressed

Compound: C[C@]12CCC(=O)C=C1CC[C@@H]1[C@@H]2[C@@H](O)C[C@@]2(C)[C@H]1CC[C@]2(O)C(=O)CO [cortisol, reference compound]
- sensitivity of cells to glucocorticoid treatment (cell proliferation) (HaCaT cells): more sensitive
- LPS-induced increase of inflammatory cytokine IL-1β (IL-1β mRNA): significantly suppressed
